# In patent US9701646B2, “Small molecule inhibitors of PI3-kinase signaling” (Tufts University, priority 2013, dated 2017):
# pEC50: −log10 of the molar value. Like-named read-outs stand apart in the source and are kept apart here.
# Assays:
# [1] = tested on: U87MG human glioblastoma cells; assay: Cell viability of U87MG cells, ATP assay; assay type: cell-based; settings: Homo sapiens, U-87 MG, 24 h
# Description: U87MG human glioblastoma cells were maintained in culture at 37° C., 5% CO2, complete medium for 24 h in the presence of various final concentrations of YK-NCL-176, YK-NCL-177, YK-NCL-178, YK-NCL-179, YK-NCL-180, YK-NCL-183, YK-NCL-184, YK-NCL-185, YK-NCL-186, YK-NCL-187, YK-NCL-188, YK-NCL-189, YK-NCL-190, YK-NCL-191, YK-NCL-192, YK-NCL-193, YK-NCL-194, YK-NCL-195, YK-NCL-196, YK-NCL-197, NK-YCL-198, or YK-NCL-199, each in DMSO, with or without 1 μg/mL TRAIL. DMSO alone was used as a negative control. Following the incubation, cell viability was measured using an ATP assay.
# [2] = tested on: A2780 human ovarian cancer cells; assay: Cell viability of A2780 cells, ATP assay; assay type: cell-based; settings: Homo sapiens, A2780, 24 h
# Description: (§1) A2780 human ovarian cancer cells were maintained in culture at 37° C., 5% CO2, complete medium for 24 h in the presence of various final concentrations of DM-PIT-1, YK-NCL-176, YK-NCL-198, or NK-YCL-240, each in DMSO, with or without 1 μg/mL TRAIL. DMSO alone was used as a negative control. Following the incubation, cell viability was measured using an ATP assay.
# as §1, with “YK-NCL-217, YK-NCL-218, NK-YCL-219, YK-NCL-220, YK-NCL-234,” for “YK-NCL-176, YK-NCL-198,”, “YK-NCL-241,” for “NK-YCL-240,”
# [3] = in DMSO, without TRAIL, read-out: EC50 alone
# [4] = with 1 μg/mL TRAIL, read-out: EC50 with TRAIL
Compound,"pEC50 [1, 3]","pEC50 [1, 4]","pEC50 [2, 3]","pEC50 [2, 4]"
Cc1cc(C)cc(C(=O)c2cn(-c3cc(C)ccc3O)nn2)c1 [YK-NCL-193],< 4.00,< 4.00,,
Cc1cccc(O)c1-n1cc(C(O)(c2ccccc2)c2cn(-c3c(C)cccc3O)nn2)nn1 [YK-NCL-218],,,< 4.00,4.64
COc1ccc(Cl)cc1-n1cc(C(=O)c2ccccc2)nn1 [YK-NCL-178],< 4.00,< 4.00,,
Cc1cc(C)cc(C(=O)c2cn(-c3c(C)cccc3O)nn2)c1 [YK-NCL-192],3.98,4.01,,
Cc1ccc(O)c(-n2cc(C(=O)c3ccc4ccccc4c3)nn2)c1 [YK-NCL-188],< 4.00,< 4.00,,
CC(C)c1ccc(C(=O)c2cn(-c3ccc([N+](=O)[O-])cc3O)nn2)cc1 [YK-NCL-199],< 4.00,4.02,,
Cc1cc(C)cc(C(=O)c2cn(-c3cc(Cl)ccc3O)nn2)c1 [YK-NCL-190],4.24,4.51,,
Cc1ccc(O)c(-n2cc(C(=O)c3ccc(C(C)C)cc3)nn2)c1 [YK-NCL-197],< 4.00,< 4.00,,
O=C(c1ccc2ccccc2c1)c1cn(-c2cc(Cl)ccc2O)nn1 [YK-NCL-186],< 4.00,< 4.00,,
COc1ccc(Cl)cc1-n1nncc1C(=O)c1ccccc1 [YK-NCL-177],< 4.00,< 4.00,,
Cc1cc(C)cc(C(O)(c2cn(-c3c(C)cccc3O)nn2)c2cn(-c3c(C)cccc3O)nn2)c1 [YK-NCL-220],,,< 4.00,4.77
Oc1ccc(Cl)cc1-n1cc(CC(O)(c2ccccc2)c2cn(-c3cc(Cl)ccc3O)nn2)nn1 (centres unmarked) [YK-NCL-241],,,< 4.00,< 4.00
Cc1cccc(O)c1-n1cc(C(O)(c2cc(C(F)(F)F)cc(C(F)(F)F)c2)c2cn(-c3c(C)cccc3O)nn2)nn1 [YK-NCL-217],,,4.29,4.87
COc1ccc(Cl)cc1-n1cc(C(O)(c2ccccc2)c2cn(-c3cc(Cl)ccc3OC)nn2)nn1 [YK-NCL-180],< 4.00,< 4.00,,
O=C(NCc1cn(-c2cc(Cl)ccc2O)nn1)c1cc(C(F)(F)F)cc(C(F)(F)F)c1 [YK-NCL-234],,,4.79,4.85
Cc1ccc(O)c(-n2cc(C(O)(c3ccccc3)c3cn(-c4cc(C)ccc4O)nn3)nn2)c1 [YK-NCL-219],,,4.62,5.04
O=C(c1ccccc1)c1cn(-c2ccc(Cl)cc2O)nn1 [YK-NCL-191],4.31,4.37,,
Cc1cccc(O)c1-n1cc(C(=O)c2ccccc2)nn1 [YK-NCL-185],5.09,5.10,,
CC(C)c1ccc(C(=O)c2cn(-c3cc(Cl)ccc3O)nn2)cc1 [YK-NCL-195],4.19,4.38,,
O=C(c1ccc2ccccc2c1)c1cn(-c2ccc([N+](=O)[O-])cc2O)nn1 [YK-NCL-189],< 4.00,< 4.00,,
Cc1ccc(O)c(-n2cc(C(=O)c3ccccc3)nn2)c1 [YK-NCL-184],< 4.00,< 4.00,,
Cc1cccc(O)c1-n1cc(C(=O)c2ccc(C(C)C)cc2)nn1 [YK-NCL-196],< 4.00,< 4.00,,
Cc1cc(C)cc(C(=O)c2cn(-c3ccc(Cl)cc3O)nn2)c1 [YK-NCL-183],< 4.00,4.19,,
Cc1cc(C)cc(C(=O)c2cn(-c3ccc([N+](=O)[O-])cc3O)nn2)c1 [YK-NCL-194],4.05,4.15,,
Cc1cccc(O)c1-n1cc(C(=O)c2ccc3ccccc3c2)nn1 [YK-NCL-187],4.07,4.13,,
